Our source for the TGI values is PubChem BioAssay (NCI).

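Compound exposure: 48 hours, 5 concentrations, 96-well plates. TGI is the concentration that stops growth completely.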

Among the test systems are A549 NSCLC; SF-268 CNS; SNB-75 CNS; SK-MEL-28 melanoma; SW-620 colon; UO-31 renal; SF-295 CNS; RPMI-8226 leukemia; SF-539 CNS.
Holding throughout (test): DTP human tumour cell line panel, 48 h

Broadly, the TGI is the concentration giving total growth inhibition. Low readings indicate greater sensitivity of the cells, high ones lower sensitivity of the cells.

Regarding `C(/C=C(\Nc1ccccc1)C12CC3CC(CC(C3)C1)C2)=Nc1ccccc1`, the TGI in the assay on A549 NSCLC is 73.3 µM; with SF-268 CNS, 41.1 µM; in the assay on SNB-75 CNS it was 46.4 µM; in the assay with SK-MEL-28 melanoma, 47.1 µM; in the assay on SW-620 colon, 41.7 µM; with UO-31 renal it was 29.3 µM. In the assay on SF-295 CNS, this compound had a TGI of 36.5 µM.
In the case of `c1csc(-c2ccc(-c3cccs3)c3nsnc23)c1`, the TGI in the assay on A549 NSCLC is above 100 µM; with SF-268 CNS it was above 59.2 µM; with SNB-75 CNS, above 100 µM; in the assay on RPMI-8226 leukemia it was above 82.4 µM; in the assay with SK-MEL-28 melanoma, above 54.2 µM; in the assay with SW-620 colon, above 50 µM. The TGI was above 100 µM with UO-31 renal, above 51 µM with SF-539 CNS and above 100 µM in the assay with SF-295 CNS.
Consider `C[C@]12CC[C@@H]3c4ccc(O)cc4CC[C@H]3[C@@H]1C/C(=C\c1ccncc1)[C@@H]2O`, for which the TGI in the assay with A549 NSCLC was above 100 µM; with SF-268 CNS it was 55.5 µM; with SNB-75 CNS, 23.6 µM; in the assay on RPMI-8226 leukemia, 24.6 µM; in the assay on SK-MEL-28 melanoma, above 100 µM; with SW-620 colon, above 100 µM. The TGI in the assay on UO-31 renal is 52.9 µM; in the assay with SF-295 CNS, 70.2 µM.
As to `O=c1[nH]cnc2c1ncn2[C@@H]1C[C@@H]1CO`, the TGI in the assay with A549 NSCLC, with SF-268 CNS, with SNB-75 CNS, in the assay with SK-MEL-28 melanoma, with SW-620 colon and in the assay with UO-31 renal was above 100 µM throughout. This compound also had a TGI in the assay with SF-539 CNS above 100 µM.
`O=C(Nc1ccccc1F)c1cc2ccc(O)cc2oc1=Nc1ccccc1F`: the TGI in the assay with A549 NSCLC is 5.89 µM; in the assay on SF-268 CNS it was 5.26 µM; in the assay on RPMI-8226 leukemia it was 7.84 µM; in the assay with SK-MEL-28 melanoma, 5.8 µM; in the assay on SW-620 colon it was 8.98 µM; in the assay on UO-31 renal, 3.56 µM. The figures for the TGI with SF-539 CNS and in the assay with SF-295 CNS were 16.5 µM and 8.48 µM, respectively.
As to `CC1CN=C(N(C(=O)Nc2ccc(F)c(Cl)c2)c2ccccc2)S1` (configuration not stated), the TGI in the assay on A549 NSCLC was 92.1 µM; in the assay on SF-268 CNS, above 100 µM; in the assay with SNB-75 CNS, 63.7 µM; with RPMI-8226 leukemia it was above 100 µM; with SK-MEL-28 melanoma it was 33.5 µM; with SW-620 colon, 90.3 µM. In addition, the TGI in the assay on UO-31 renal is 98.1 µM; in the assay on SF-539 CNS, above 100 µM; in the assay with SF-295 CNS it was above 100 µM.
Turning to `Cc1cc2c([N+](=O)[O-])cc3c(c2o1)C(=O)C=CC3=O`, the TGI was 37.2 µM with A549 NSCLC; 32.1 µM in the assay with SF-268 CNS; above 61.5 µM in the assay with SNB-75 CNS; above 100 µM in the assay with RPMI-8226 leukemia; above 20.8 µM in the assay on SK-MEL-28 melanoma; 3.62 µM in the assay on UO-31 renal. The TGI is 31.3 µM in the assay with SF-539 CNS and 23 µM in the assay on SF-295 CNS.
Turning to `COc1ccc(S(=O)(=O)N2C(=O)CCC2C(=O)NN)cc1` (configuration not stated), the TGI in the assay with A549 NSCLC, with SNB-75 CNS, in the assay on RPMI-8226 leukemia, in the assay on SK-MEL-28 melanoma, with SW-620 colon and in the assay on UO-31 renal was above 100 µM each time. In addition, the TGI in the assay on SF-539 CNS and in the assay on SF-295 CNS was above 100 µM in each case.
As to `Cc1ccc([N+](=O)[O-])cc1N=NC(=O)NNc1cc([N+](=O)[O-])ccc1C`, the TGI is 66.2 µM in the assay with SNB-75 CNS; above 100 µM in the assay with RPMI-8226 leukemia; 87.5 µM with SK-MEL-28 melanoma; 78.9 µM in the assay on UO-31 renal; 40.9 µM in the assay with SF-295 CNS.
As for `CSc1c(C#N)c(N)n(-c2ccc(C)cc2)c(=O)c1C#N`, the TGI with A549 NSCLC, in the assay with SF-268 CNS, in the assay on SNB-75 CNS, with RPMI-8226 leukemia, with SK-MEL-28 melanoma and with SW-620 colon was above 100 µM throughout. The TGI in the assay with UO-31 renal and with SF-539 CNS was above 100 µM in each case.
Take `Cc1c(N2C(=O)C(Cl)C2c2ccc(Cl)cc2)c(=O)n(-c2ccccc2)n1C` (configuration not stated): the TGI in the assay on A549 NSCLC was above 100 µM; with SF-268 CNS, above 100 µM; with RPMI-8226 leukemia, 42.6 µM; with SW-620 colon, above 100 µM; in the assay with UO-31 renal, above 100 µM; in the assay on SF-539 CNS, above 100 µM. In the assay with SF-295 CNS, this compound gave a TGI above 100 µM.
For the compound `C(=Nc1ccc(-c2nc3ccccc3o2)cc1)c1ccco1`, the TGI in the assay with SNB-75 CNS was above 100 µM; in the assay on RPMI-8226 leukemia, 36.9 µM; in the assay with SK-MEL-28 melanoma, above 100 µM; with SW-620 colon, above 100 µM; in the assay on UO-31 renal, above 100 µM; with SF-539 CNS it was above 100 µM.
Take `Cc1cc(-c2nc3ccccc3s2)ccc1NC(=O)[C@@H](N)CCCCN`: the TGI in the assay with A549 NSCLC amounted to 12.7 µM; with SF-268 CNS, 14.5 µM; with SNB-75 CNS it was 13 µM; with SK-MEL-28 melanoma, 31.3 µM; in the assay with SW-620 colon, 25.3 µM; in the assay on UO-31 renal, 19.3 µM. The same compound came in with a TGI in the assay on SF-295 CNS of 10.6 µM.
With `Nc1nc(Cl)cc(NCC2(CO)CCC(CCc3ccccc3)C2)n1` (configuration not stated), the TGI is 32 µM with A549 NSCLC; 35.6 µM with SF-268 CNS; 39.4 µM in the assay with SNB-75 CNS; 37.3 µM with SK-MEL-28 melanoma; 36 µM with SW-620 colon; 33.3 µM in the assay with UO-31 renal. Moreover, the concentration for total growth inhibition (TGI) in the assay with SF-539 CNS is 33.4 µM; in the assay with SF-295 CNS, 21.8 µM.
With `CC(=O)c1cccn1/C=C(\OC(=O)OC(C)(C)C)c1ccc[nH]1`, the TGI in the assay with A549 NSCLC was above 100 µM; in the assay on SF-268 CNS it was above 100 µM; in the assay on SNB-75 CNS, 67.2 µM; in the assay with RPMI-8226 leukemia it was above 100 µM; in the assay on SK-MEL-28 melanoma, above 100 µM; with SW-620 colon, above 100 µM. Also, the TGI in the assay with UO-31 renal and with SF-295 CNS was above 100 µM each time.
With `Oc1[nH]c2ccc(Br)cc2c1N=NC(=S)Nc1ccc(F)cc1`, the TGI with SF-268 CNS turned out to be 35.7 µM; in the assay with SNB-75 CNS, 30 µM; in the assay on SK-MEL-28 melanoma, 39.8 µM; with SW-620 colon, 40.2 µM; with SF-539 CNS, 38.8 µM; in the assay with SF-295 CNS, 21.8 µM.
On to `C=CCNC(=S)N=Nc1c(O)[nH]c2ccc([N+](=O)[O-])cc12`, for which the TGI with A549 NSCLC, with SF-268 CNS, in the assay on RPMI-8226 leukemia, in the assay on SK-MEL-28 melanoma, in the assay on SW-620 colon and in the assay on UO-31 renal was above 100 µM in each case. Besides, the TGI with SF-539 CNS and in the assay with SF-295 CNS was above 100 µM each time.
